Laboratory results from patent EP1481666A1, “A composition for re-establishment of the vaginal ecosystem” (ROTTAPHARM S.R.L., priority 2003, dated 2004).

Tested on: Lactobacillus acidophilus ATCC 314
Assay: Test 1: comparison between nutrient substrates (use of substrate added to MRS broth base by Lactobacillus)
Format: cell-based, Lactobacillus acidophilus ATCC 314 (human origin)
Conditions: for Lactic acid (%): HPLC; for Lactic acid (%) / D.O. / pH: 37°C, 24 hours; for D.O.: optical density of the culture; for growth and production of lactic acid: concentrations from 0.5 to 2.0%; for pH: starting pH 5.7±0.2
Text: Since the Lactobacilli control the vaginal pH by means of the production of lactic acid it appeared to be useful to verify, both directly and indirectly, their capacity to utilise the various substrates proposed for the production of lactic acid and consequently their utility in the formulation of the composition.
• Lactobacillus acidophilus ATCC 314 (human origin) • Lactobacillus acidophilus wt (from vaginal swab)
• MRS broth (Lactobacillus broth according to De Man, Rogose) Merck • MRS broth base (without D(+)-glucose) • Series of MRS broth base media to which maltodextrins were added in percentages lying between 0.1 and 5% • Series of MRS broth base media to which glycogen was added in quantities lying between 0.5 and 2% • Series of MRS broth base media to which glucose was added in quantities lying between 0.1 and 2% • Series of MRS broth base media to which lactose was added in quantities lying between 0.5 and 2% Note: the pH of the media was always 5.7±0.2.
After having prepared fresh cultures of Lactobacilli in agar, an inoculation into five ml of MRS broth was incubated at 37°C for 24 hours. Aliquotes were prepared from 60 ml of the previously described media and in each of these were inoculated 600 µl of the culture in agar, with subsequent incubation at 37°C for 24 hours. As negative control aliquotes of 3 ml of the above-described media without inoculation of Lactobacilli were incubated. As positive control Merck MRS broth was utilised.
After 24 hours of incubation the optical density of the cultures was measured, the pH of the media was determined after centrifugation and filtration of the supernatant with a 0.45µ filter. The lactic acid present in the culture was also quantified by the HPLC method utilising as a control a laboratory standard of the same. These evaluation parameters have the following significance: • An increase in optical density confirms the growth of Lactobacilli; • Reduction in pH indicates the formation of lactic acid; • The quantitative determination of the lactic acid measures the efficiency of the use of the nutrient substrate by the Lactobacilli.

[1] = substrate 0.5 % in MRS broth base
[2] = substrate 1.0 % in MRS broth base
[3] = substrate 2.0 % in MRS broth base
[4] = result in words, concentration of 0.1%

SMILES | Lactic acid (%) (substrate 0.5 %) | Lactic acid (%) (substrate 1.0 %) | Lactic acid (%) (substrate 2.0 %) | D.O. (substrate 0.5 %) | D.O. (substrate 1.0 %) | D.O. (substrate 2.0 %) | growth and production of lactic acid (result in words) | pH [1] | pH [2] | pH [3] | Lactic acid (%) (substrate 0.1 %) | D.O. (substrate 0.1 %) | utilised for the growth of Lactobacillus [4] | utilised for the production of lactic acid [4] | pH (substrate 0.1 % in MRS broth base)
OC[C@H]1O[C@@H](O[C@H]2[C@H](O)[C@@H](O)C(O)O[C@@H]2CO)[C@H](O)[C@@H](O)[C@H]1O (stereo partly shown) [LA, Lactose] | <0.10 | <0.10 | <0.10 | 0.218 | 0.221 | 0.179 | rather poor | 5.88 | 5.91 | 5.94 | – | – | – | – | –
OC[C@H]1OC(O)[C@H](O)[C@@H](O)[C@@H]1O (stereo partly shown) [GLU, Glucose] | 0.90 | 1.80 | 2.43 | 1.540 | 2.593 | 2.540 | utilised in a useful and dose-dependent manner | 4.74 | 4.33 | 4.57 | 0.17 | 0.665 | significant | hardly utilised | 5.56
